The text below walks through data of ChEMBL document CHEMBL1149530, “Design and synthesis of a new, conformationally constrained, macrocyclic small-molecule inhibitor of STAT3 via 'click chemistry'” (Bioorg Med Chem Lett, 2007).

Where a SMILES comes first, the peptide text is derived from it. Bridges are numbered along the chain shown (N, C = ends). Triazole bridges read from a SMILES are 1,4-linked. [ ]: non-standard residue; d: D form. pY = N[C@@H](Cc1ccc(OP(=O)(O)O)cc1)C(=O)O; Lys(N3) = [N-]=[N+]=NCCCC[C@H](N)C(=O)O; Pra = C#CC[C@H](N)C(=O)O

This experiment deals with Signal transducer and activator of transcription 3 (Homo sapiens, UniProt P40763). Briefly: Binding affinity to recombinant STAT3 by fluorescence polarization based binding assay. A general note: Fluorescence polarisation rises when a labelled molecule tumbles more slowly, as on binding a larger partner.
Signal transducer and activator of transcription 3, sequence (P40763 whole entry): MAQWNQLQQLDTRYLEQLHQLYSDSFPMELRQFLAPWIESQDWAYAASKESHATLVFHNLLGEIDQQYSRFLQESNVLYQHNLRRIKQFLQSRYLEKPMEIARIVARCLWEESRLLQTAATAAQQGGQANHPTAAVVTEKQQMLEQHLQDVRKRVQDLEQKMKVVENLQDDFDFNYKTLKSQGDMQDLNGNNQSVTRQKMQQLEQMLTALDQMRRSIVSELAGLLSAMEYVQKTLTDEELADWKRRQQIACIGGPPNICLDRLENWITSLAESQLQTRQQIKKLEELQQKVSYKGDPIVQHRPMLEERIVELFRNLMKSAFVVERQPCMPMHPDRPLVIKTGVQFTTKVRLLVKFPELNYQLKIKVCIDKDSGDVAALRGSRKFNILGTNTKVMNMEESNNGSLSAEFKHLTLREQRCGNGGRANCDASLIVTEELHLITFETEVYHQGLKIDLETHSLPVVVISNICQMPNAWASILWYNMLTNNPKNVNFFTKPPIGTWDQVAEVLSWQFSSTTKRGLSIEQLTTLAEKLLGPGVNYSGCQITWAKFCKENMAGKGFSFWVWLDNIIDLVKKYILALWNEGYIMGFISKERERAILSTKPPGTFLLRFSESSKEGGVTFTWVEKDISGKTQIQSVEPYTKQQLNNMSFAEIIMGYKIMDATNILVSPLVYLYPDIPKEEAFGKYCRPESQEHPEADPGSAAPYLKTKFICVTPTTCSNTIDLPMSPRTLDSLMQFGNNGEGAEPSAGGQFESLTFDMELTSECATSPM

Regarding `CC(=O)N[C@@H](Cc1ccc(OP(=O)(O)O)cc1)C(=O)N[C@@H](CC(C)C)C(=O)N[C@H]1CCCCn2cc(nn2)C[C@@H](C(=O)N[C@@H](Cc2ccccc2)C(N)=O)NC(=O)[C@H]([C@@H](C)O)NC1=O` (Ac-[pY]L[Lys(N3)]T[Pra]F-NH2; triazole 3-5), the Ki came to 7.3 µM.
For `CC(=O)N[C@@H](Cc1ccc(OP(=O)(O)O)cc1)C(=O)N[C@@H](CC(C)C)C(=O)N[C@@H](CCCCN)C(=O)N[C@H](C(=O)N[C@@H](CCCCN)C(=O)N[C@@H](Cc1ccccc1)C(N)=O)[C@@H](C)O` (HELM PEPTIDE1{[ac].[O=C([C@H](Cc1ccc(OP(=O)(O)O)cc1)N[*:1])[*:2]].L.K.T.K.F.[am]}$$$$V2.0) the value was 25.9 µM.

One may read the Ki as the equilibrium dissociation constant of an inhibitor or competing ligand from its target.
